The experiment concerns BDF1 mice, P388 leukemia ip, median survival T/C. Briefly: NCI In Vivo Anticancer Drug Screen. Data for tumor model P388 Leukemia (intraperitoneal) in B6D2F1 (BDF1) mice. The note with it: endpoint: median survival time, higher = longer survival. The method, boiled down: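 In tumour-bearing mice, survival after compound treatment is set against the vehicle group and given as a quotient.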

Setting [1] is: dose: 100.0 mg/kg/injection, schedule: Q01DX009 (ip), vehicle: Klucel (hydroxypropylcellulose) (HPC).
Setting [2] is: dose: 100.0 mg/kg/injection, schedule: Q04DX003 (ip), vehicle: saline with Tween-80.
Setting [3] is: dose: 200.0 mg/kg/injection, schedule: Q04DX003 (ip), vehicle: saline with Tween-80.
[4] abbreviates: dose: 400.0 mg/kg/injection, schedule: Q04DX003 (ip), vehicle: saline with Tween-80.
Where [5] appears, read: dose: 12.5 mg/kg/injection, schedule: Q01DX009 (ip), vehicle: saline with Tween-80.
The mark [6] stands for this setting: dose: 25.0 mg/kg/injection, schedule: Q01DX009 (ip), vehicle: saline with Tween-80.
Setting [7] is: dose: 50.0 mg/kg/injection, schedule: Q01DX009 (ip), vehicle: saline with Tween-80.

“And” between values parts separate entries of the source, which are not always exact repeats. Identical values can stand only once. Inconclusive results and toxic doses are left out.

Turning to `Nc1cc(C(=O)Nc2ccc(CCNC3=NCCN3)cc2)ccc1C(=O)Nc1ccc(CCNC2=NCCN2)cc1`, the T/C was 123 % of control (dose: 2.6 mg/kg/injection, schedule: Q01DX009 (ip), vehicle: saline with Tween-80); 109 % of control and 113 % of control (dose: 5.0 mg/kg/injection, schedule: Q04DX003 (ip), vehicle: saline with Tween-80); 157 % of control (dose: 6.0 mg/kg/injection, schedule: Q01DX009 (ip), vehicle: saline with Tween-80); 157 % of control (dose: 6.7 mg/kg/injection, schedule: Q01DX009 (ip), vehicle: saline with Tween-80); 118 % of control (dose: 8.0 mg/kg/injection, schedule: Q04DX003 (ip), vehicle: saline with Tween-80); 192 % of control and 215 % of control (dose: 10.0 mg/kg/injection, schedule: Q01DX009 (ip), vehicle: saline with Tween-80). Also, the T/C reads like this: (dose: 10.0 mg/kg/injection, schedule: Q04DX003 (ip), vehicle: saline with Tween-80) 109 % of control; (dose: 12.0 mg/kg/injection, schedule: Q04DX003 (ip), vehicle: saline with Tween-80) 118 % of control; (dose: 15.0 mg/kg/injection, schedule: Q01DX009 (ip), vehicle: saline with Tween-80) 230 % of control; (dose: 18.0 mg/kg/injection, schedule: Q04DX003 (ip), vehicle: saline with Tween-80) 150 % of control and 163 % of control; (dose: 20.0 mg/kg/injection, schedule: Q01DX009 (ip), vehicle: saline with Tween-80) 230 % of control; (dose: 20.0 mg/kg/injection, schedule: Q04DX003 (ip), vehicle: saline with Tween-80) 163 % of control. The T/C runs as follows: (dose: 26.0 mg/kg/injection, schedule: Q04DX003 (ip), vehicle: saline with Tween-80) 150 % of control and 177 % of control; (dose: 40.0 mg/kg/injection, schedule: Q04DX003 (ip), vehicle: saline with Tween-80) 250 % of control and 200 % of control; (dose: 60.0 mg/kg/injection, schedule: Q04DX003 (ip), vehicle: saline with Tween-80) 162 % of control.

As to `CCOC(=O)C(=O)N(Cc1cnc2nc(N)[nH]c(=O)c2n1)c1ccc(C(=O)NC(CCC(=O)O)C(=O)O)cc1` (stereo not given), the T/C reads like this: (dose: 50.0 mg/kg/injection, schedule: Q04DX003 (ip), vehicle: saline) 96 % of control; (dose: 100.0 mg/kg/injection, schedule: Q04DX003 (ip), vehicle: saline) 103 % of control; (dose: 200.0 mg/kg/injection, schedule: Q04DX003 (ip), vehicle: saline) 116 % of control.

On to `O=S(=O)(CBr)OCCCl`, for which the T/C runs as follows: (dose: 50.0 mg/kg/injection, schedule: Q01DX005 (ip), vehicle: saline with Tween-80) 120 % of control; (dose: 100.0 mg/kg/injection, schedule: Q01DX005 (ip), vehicle: saline with Tween-80) 121 % of control; (dose: 200.0 mg/kg/injection, schedule: Q01DX005 (ip), vehicle: saline with Tween-80) 165 % of control.

Turning to `O=S1(=O)CC(Cl)(Br)C1` (tested in a mixture with another compound), the T/C under setting [1] was 91 % of control.

As for `CCNC(=O)Nc1ccc(N(CC)CC)cc1`, the T/C is 100 % of control under setting [2], 100 % of control under setting [3] and 100 % of control under setting [4].

Take `C[N+](C)(C)CN1C(=O)c2ccccc2C1=O`: the T/C was 87 % of control (dose: 50.0 mg/kg/injection, schedule: Q01DX009 (ip), vehicle: saline) and 100 % of control (dose: 100.0 mg/kg/injection, schedule: Q01DX009 (ip), vehicle: saline).

Consider `CCCCCC(C)(C1=NC(C)(C)CC(C)O1)c1ccccc1` (stereo not given), for which the T/C by setting is: (dose: 12.5 mg/kg/injection, schedule: Q01DX001 (ip), vehicle: saline sonified) 100 % of control; (dose: 25.0 mg/kg/injection, schedule: Q01DX001 (ip), vehicle: saline sonified) 100 % of control; (dose: 50.0 mg/kg/injection, schedule: Q01DX001 (ip), vehicle: saline sonified) 100 % of control.

For `CC[N+](CC)(CC)CCCCCCCC[N+](CC)(CC)CC`, the T/C (dose: 0.25 mg/kg/injection, schedule: Q01DX009 (ip), vehicle: water) is 115 % of control; the T/C (dose: 0.5 mg/kg/injection, schedule: Q01DX009 (ip), vehicle: water) is 92 % of control; the T/C (dose: 0.5 mg/kg/injection, schedule: Q04DX003 (ip), vehicle: water) is 100 % of control; the T/C (dose: 0.78 mg/kg/injection, schedule: Q04DX003 (ip), vehicle: water) was 112 % of control; the T/C (dose: 1.0 mg/kg/injection, schedule: Q01DX009 (ip), vehicle: water) is 105 % of control and 106 % of control; the T/C (dose: 1.0 mg/kg/injection, schedule: Q04DX003 (ip), vehicle: water) is 88 % of control. For the same compound, the T/C (dose: 1.56 mg/kg/injection, schedule: Q04DX003 (ip), vehicle: water) was 112 % of control; the T/C (dose: 2.0 mg/kg/injection, schedule: Q01DX009 (ip), vehicle: water) was 106 % of control; the T/C (dose: 3.12 mg/kg/injection, schedule: Q04DX003 (ip), vehicle: water) is 112 % of control.

As to `CN1C(=O)CC2(CCN(CCCC(=O)c3ccc(F)cc3)CC2)C1=O`, the T/C is, setting by setting: (dose: 6.25 mg/kg/injection, schedule: Q01DX009 (ip), vehicle: saline with Tween-80) 116 % of control; under setting [5], 107 % of control; (dose: 25.0 mg/kg/injection, schedule: Q01DX009 (ip), vehicle: Klucel (hydroxypropylcellulose) (HPC)) 118 % of control; under setting [6], 124 % of control; (dose: 50.0 mg/kg/injection, schedule: Q01DX009 (ip), vehicle: Klucel (hydroxypropylcellulose) (HPC)) 120 % of control; under setting [7], 97 % of control.

On to `CCCCCCCCCCCCOCCCCCCCCCCCC`, for which the T/C (dose: 100.0 mg/kg/injection, schedule: Q01DX009 (sc), vehicle: olive oil, sesame oil, peanut oil) was 100 % of control; the T/C (dose: 100.0 mg/kg/injection, schedule: Q04DX003 (sc), vehicle: olive oil, sesame oil, peanut oil) is 109 % of control; the T/C (dose: 200.0 mg/kg/injection, schedule: Q01DX009 (sc), vehicle: olive oil, sesame oil, peanut oil) was 100 % of control; the T/C (dose: 200.0 mg/kg/injection, schedule: Q04DX003 (sc), vehicle: olive oil, sesame oil, peanut oil) was 100 % of control; the T/C (dose: 400.0 mg/kg/injection, schedule: Q01DX009 (sc), vehicle: olive oil, sesame oil, peanut oil) was 95 % of control; the T/C (dose: 400.0 mg/kg/injection, schedule: Q04DX003 (sc), vehicle: olive oil, sesame oil, peanut oil) was 100 % of control.

For the compound `O=C1N=C2C=CC=CN2CC1O` (stereo not given), the T/C was 104 % of control under setting [2], 112 % of control under setting [3] and 100 % of control under setting [4].

Regarding `CC(C(=O)O)=C(c1ccccc1)c1ccccc1`, the T/C by setting is: (dose: 100.0 mg/kg/injection, schedule: Q01DX001 (ip), vehicle: saline with Tween-80) 100 % of control; (dose: 200.0 mg/kg/injection, schedule: Q01DX001 (ip), vehicle: saline with Tween-80) 100 % of control; (dose: 400.0 mg/kg/injection, schedule: Q01DX001 (ip), vehicle: saline with Tween-80) 100 % of control.

On to `CN1Cc2cc3cc(c2O)C[N+](C)(C)Cc2c(Cl)c(c(Cl)c(c2Cl)C[N+](C)(C)C3)C1`, for which the T/C was 118 % of control (dose: 6.25 mg/kg/injection, schedule: Q01DX009 (ip), vehicle: saline); 108 % of control (dose: 8.2 mg/kg/injection, schedule: Q01DX009 (ip), vehicle: saline); 108 % of control (dose: 12.5 mg/kg/injection, schedule: Q01DX009 (ip), vehicle: saline); 104 % of control (dose: 25.0 mg/kg/injection, schedule: Q01DX001 (ip), vehicle: saline); 109 % of control (dose: 25.0 mg/kg/injection, schedule: Q01DX009 (ip), vehicle: saline); 100 % of control (dose: 50.0 mg/kg/injection, schedule: Q01DX001 (ip), vehicle: saline). Further, the T/C (dose: 118.0 mg/kg/injection, schedule: Q01DX009 (ip), vehicle: saline) is 112 % of control.

As for `CN1CC(=O)N=C1N`, the T/C runs as follows: under setting [1], 90 % of control; (dose: 200.0 mg/kg/injection, schedule: Q01DX009 (ip), vehicle: Klucel (hydroxypropylcellulose) (HPC)) 95 % of control; (dose: 400.0 mg/kg/injection, schedule: Q01DX009 (ip), vehicle: Klucel (hydroxypropylcellulose) (HPC)) 100 % of control.

Turning to `CCCC(C(=O)OCCN1CCCC12CCCCC2)C1CCCC1` (stereo not given), the T/C under setting [5] was 107 % of control, the T/C under setting [6] was 108 % of control and the T/C under setting [7] was 119 % of control.

These data come from PubChem BioAssay AID328 (DTP/NCI, 2004).
